# Results from US7410955B2, “Therapeutic use of agonist ligands specific to G2A receptor” (Biosynergen, Inc., priority 2002, dated 2008).
# Columns and labels:
# [1] = tested on: myeloperoxidase (MPO) in pulmonary tissues; test: LPS-induced (intratracheal) acute lung injury model, lung MPO activity; format: in vivo, ICR mice
# Protocol: (§1) The activity of myeloperoxidase (MPO), an indicator of neutrophils, in pulmonary tissues was determined according to the methods of Goldblum et al (J. Appl. physiol. 59: 1978, 1985) and Parey et al (J. Immunol. 160:1007, 1998). First, mice were sacrificed and pulmonary tissues were obtained therefrom. The tissues had been homogenized in potassium phosphate buffer, and centrifuged to obtain pellets. These pellets were sonicated in potassium phosphate buffer containing 0.5% hexadecyltrimethylammonium bromide (HTAB), and incubated at 60° C. for 120 min. After centrifugation, supernatants were obtained. 0.02 ml of supernatants was mixed with potassium phosphate buffer solution (0.18 ml) containing o-dianisidine dihydrochloride of 0.167 mg/ml and 0.0005% hydrogen peroxide. Accordingly, the absorbance of the mixture was determined at a wavelength of 460 nm.
# Mice were intratracheally administered with LPS to cause direct acute lung injury, thereby inducing acute respiratory distress syndrome.
# ICR mice (25-30 g in body weight; MJ Ltd.) were divided into five groups of 7 mice (Sham group, experimental groups-1, -2, -3 and a control group). Mice of each group were anesthetized with pentobarbital, their skins were dissected in a length of 1 cm to expose their bronchia. […]
# neutrophils (human PMNs) = test: IL-8 release induced by LPS in neutrophils (ELISA); format: cell-based; conditions: 15 μM and 30 μM, 1 hour before 1 μg/ml LPS, supernatant after 3 hours
# Excerpt: Neutrophils were isolated from healthy adults using discontinuous percoll gradient according to the method of Szucs, S. et al. (J. Immunol. Methods, 167: 245-251, 1994). First, plasmas were separated from heparinized whole blood, and red blood cells were depleted by dextran sedimentation. Thereafter, leukocytes were layered over a percoll gradient with densities of 1.077 and 1.094 (Pharmacia, Sweden). Separated neutrophil layers were recovered from the percoll gradient interface, and then washed with HBSS (Hank's balanced salt solution, Sigma Chemical Co., USA). The remaining pellet was resuspended in RPMI 1640 medium supplemented with 10% FBS (fetal bovine serum) and 2 mM gentamicin. As a result of the examination of the cytospin stained with Wright-Giemsa (Sigma Chemical Co., USA), it was observed that the resuspension solution contained 95% or more neutrophils. Also, as a result of examination using trypan blue dye exclusion method, 98% or more neutrophils were observed. […]
# (§2) The neutrophils and monocytes isolated in Examples <2-1> and <2-2> above were cultured in a 96-well plate to which RPMI1640 medium containing 10% FBS was added, at a concentration of 1×10^5 cells/well/0.2 ml, respectively. […] Then, the level of IL-8 was measured using ELISA kit (Biosource, USA).
# monocytes (human PBMC) = test: IL-8 release induced by LPS in monocytes (ELISA); format: cell-based; conditions: 15 μM and 30 μM, 1 hour before 1 μg/ml LPS, supernatant after 3 hours
# Protocol: Peripheral bloods were collected from a healthy person, put into a heparinized tube and then well mixed with 1× PBS buffer. Then, they were layered in Ficoll-Hypaque solution (density 1.077, Sigma Chemical Co., USA) and then centrifuged at 2500 rpm at 4° C. for 25 min. After the monocyte layer between Ficoll layer and plasma layer had been cautiously recovered, 1×PBS buffer was added thereto and mixed well. It was then centrifuged again at 2500 rpm at 4° C. for 25 min. Such centrifugation procedures were repeated twice until red blood cells were depleted. Thereafter, the pellet was cultured in FBS at 37° C. for 15 min and centrifuged at 2500 rpm for 10 min. Then, 1×PBS buffer was added again to the pellet. The isolated cells were layered in percoll solution (density 1.066) and then centrifuged at 2500 rpm at 4° C. for 30 min. After only monocyte layer had been recovered from the isolated layers, 1×PBS buffer was added thereto. They were centrifuged at 2500 rpm for 15 min. […]
# as §2
# [2] = tested on: myeloperoxidase (MPO) in pulmonary tissues; test: Systemic LPS-induced acute lung injury model, lung MPO activity; format: in vivo, ICR mice
# Protocol: ICR mice (25-30 g in body weight; MJ Ltd.) were intraperitoneally injected with LPS (induced from E. coli 055:B5) in an amount of 1 mg/kg thereby inducing Sepsis.
# as §1, with “0.02 ml of supernatants was mixed with potassium phosphate buffer solution (0.18 ml) containing o-dianisidine dihydrochloride of 0.167 mg/ml and 0.0005% hydrogen peroxide.” left out, “nm. […]” for “nm.”
# ICR mice in LPS-induced septicemia model according to Reference Example <1-1> b) were divided into five groups of 7 mice (Sham group, an experimental group-1, an experimental group-2, an experimental group-3 and a control group). […] At 24 hours after LPS had been administered, the activity of MPO, an indicator of neutrophils, in the pulmonary tissues of the mice of each group, was determined as described in Reference Example 2.
# [3] = 20 mg/kg subcutaneous (experimental group-3), p<0.01
structure (smiles),measurement,setting,value
"CCCCCCCCCCCCCCCCCC(=O)OCC(O)COP(=O)([O-])OCC[N+](C)(C)C (stereo not drawn) [1-stearoyl LPC, 1-stearoyl (18:0) lysophosphatidylcholine]",activity of MPO in pulmonary tissues,[1]; [3],the most excellent effects
same,activity of MPO in pulmonary tissues,"[1]; 5, 10 and 20 mg/kg subcutaneous, 2 and 14 hours after intratracheal LPS, 24 hours after LPS, vs control group",suppressed in a concentration-dependent manner
same,level of IL-8 release that had been increased by LPS in neutrophils,neutrophils (human PMNs),inhibited by LPC in a concentration-dependent manner
same,level of IL-8 release that had been increased by LPS in monocytes,monocytes (human PBMC),inhibited by LPC in a concentration-dependent manner
same,activity of MPO in pulmonary tissues,[2]; [3],the most excellent effects
same,activity of MPO in pulmonary tissues,"[2]; 5, 10 and 20 mg/kg subcutaneous, 2 and 14 hours after intraperitoneal LPS 1 mg/kg, 24 hours after LPS, vs control group",suppressed in a concentration-dependent manner
